Earlier results, collected in patent US20100112083A1, “PHARMACEUTICAL PRODUCT FOR MODULATING BONE FORMATION, PROCESS FOR MODULATING BONE FORMATION” (priority 2007, published 2010).

System: mesenchymal stem cells
Conditions: by activating sirtuin protein Sirt1

Oc1ccc(/C=C/c2cc(O)cc(O)c2)cc1 [trans-resveratrol]
differentiation of mesenchymal stem cells into osteoblasts: promoted the selective differentiation
